Among the data in US20230021562A1, “[…] D[…]-1 INHIBITORS” (priority 2019, published 2023) are AC50 and Ki values, retold here.

“And” between values parts separate entries of the source, which are not always exact repeats. Equal values may be shown once. Read-outs that look alike come from different tables or passages of the source.

In one assay the test system is MOLP8 cell line. Briefly: MOLP8 CellEvent Caspase-3/7 Green live-cell IncuCyte apoptosis assay. The format is cell-based, human. The note with it: MOLP8 cells, averaged values.
Assay [1] addresses Myeloid Cell Leukemia 1 (Mcl-1) (Homo sapiens, UniProt Q07820). Briefly: biochemical. The format is binding. Conditions: HTRF Ki (nM).
Assay [2] has as its system MOLP-8 human multiple myeloma cell line. Briefly: MOLP8 Caspase-Glo 3/7 luminescent assay. In kind it is cell-based.
Setting [3] is: read-out: MOLP8 Caspase 3/7 AC50 at 6 h, 6 h.
[4] abbreviates: read-out: MOLP8 Caspase 3/7 AC50 at 12 h, 12 h.
Where [5] appears, read: read-out: MOLP8 Caspase 3/7 AC50 at 22 h, 22 h.
The mark [6] stands for this setting: MOLP8 cells, 2 hours incubation; averaged over all runs on all batches; read-out: MOLP8 Caspase-Glo AC50.

Chain of Myeloid Cell Leukemia 1 (Mcl-1) (Q07820 whole entry): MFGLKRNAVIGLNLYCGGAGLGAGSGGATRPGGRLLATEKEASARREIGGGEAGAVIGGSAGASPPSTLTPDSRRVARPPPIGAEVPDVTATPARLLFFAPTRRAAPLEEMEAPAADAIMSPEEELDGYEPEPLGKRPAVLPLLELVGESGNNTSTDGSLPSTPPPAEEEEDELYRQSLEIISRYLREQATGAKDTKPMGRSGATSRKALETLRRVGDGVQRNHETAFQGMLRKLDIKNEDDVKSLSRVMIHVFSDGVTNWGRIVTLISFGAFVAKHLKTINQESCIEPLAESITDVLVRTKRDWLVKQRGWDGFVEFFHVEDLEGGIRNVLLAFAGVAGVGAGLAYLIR

In the case of `COCCOCCn1nc2c(c1C)-c1c(Cl)ccc3c(c(C(=O)O)n(C)c13)CCCOc1cc(cc3ccccc13)SCc1cc(nn1C)CN(C)C2` (single isomer, unassigned) [Compound 31], the AC50 in the assay on MOLP8 cell line (setting [3]) was 160 nM; in the assay on MOLP8 cell line (setting [4]), 160 nM; in the assay on MOLP8 cell line (setting [5]), 160 nM; in assay [2] (setting [6]) it was 39 nM. Besides, the Ki in assay [1] is 0.04 nM and 0.03 nM.
Consider `Cc1[nH]nc2c1-c1c(Cl)ccc3c(c(C(=O)O)n(C)c13)CCCOc1cc(cc3ccccc13)SCc1cc(nn1C)CN(C)C2` (single isomer, unassigned) [Compound 23], for which the AC50 in the assay on MOLP8 cell line (setting [3]) was found to be 450 nM; in the assay with MOLP8 cell line (setting [4]) it was 450 nM; in the assay with MOLP8 cell line (setting [5]), 420 nM; in assay [2] (read-out: MOLP8 Caspase-Glo AC50; MOLP8 cells, 2 hours incubation; averaged over all runs on all batches), 215 nM. Moreover, the inhibition constant Ki in assay [1] was 0.07 nM and 0.03 nM.
`Cc1nn(CCN2CCOCC2)c2c1-c1c(Cl)ccc3c(c(C(=O)O)n(C)c13)CCCOc1cc(cc3ccccc13)SCc1cc(nn1C)CN(C)C2` (single isomer, unassigned) [Compound 41]: the AC50 with MOLP8 cell line (setting [3]) amounted to 190 nM; in the assay on MOLP8 cell line (setting [4]) it was 200 nM; in the assay on MOLP8 cell line (setting [5]) it was 180 nM; in assay [2] (setting [6]) it was 72 nM. For the same compound, the inhibitory constant (Ki) in assay [1] was 0.05 nM and 0.03 nM.
In the case of `Cc1nn(CC2CCOCC2)c2c1-c1c(Cl)ccc3c(c(C(=O)O)n(C)c13)CCCOc1cc(cc3ccccc13)SCc1cc(nn1C)CN(C)C2` (single isomer, unassigned) [Compound 15], the AC50 was determined as 230 nM with MOLP8 cell line (setting [3]), 230 nM in the assay with MOLP8 cell line (setting [4]), 190 nM in the assay with MOLP8 cell line (setting [5]) and 67 nM in assay [2] (setting [6]). For the same compound, in assay [1], the Ki is 0.09 nM and 0.03 nM.
